Laboratory results: patent US20110123512A1, “METHOD OF REGULATING THE HEAT SHOCK RESPONSE” (priority 2008, published 2011)
“Also recorded” adds a separate entry of the source.

Tests used:
hsp70 (C12C8.1) mRNA [1] = assay: cadmium stress: hsp70 (C12C8.1) induction; assay type: in vivo, C. elegans; details: 50 μM
Procedure: (§1) mRNA was prepared using the “ABSOLUTELY RNA® Nanoprep Kit” (Stratagene, Catalog #400753). The manufacturer's protocol was adapted to achieve maximal lysis of worms. Briefly, 5-10 adult animals were picked either from the control or experimental plates into 100 μl of buffer made up by mixing 7 μl 13-ME (instead of the recommended 0.7 μl 13-ME), with 100 μl Lysis Buffer provided by the manufacturer. The suspension was subjected to numerous cycles of freeze-thawing in liquid nitrogen and vortexing until the animals were completely lysed. RNA was then purified as detailed in the manufacturer's protocol. mRNA was reverse transcribed using the ISCRIPT™ cDNA Synthesis Kit (Bio-Rad, Catalog #170-8891). Quantitative PCR was performed using iQ™ SYBR® Green Supermix (Bio-Rad, Catalog #170-8880), in the iCycler system (Bio-Rad) at a 25 μl sample volume, in thin wall 200 μl PCR plates (Cat. No. 223-9441) sealed with the optical quality sealing tape (Cat. No. 223-9444).
(§2) The relative amounts of hsp mRNA were determined using the Comparative CT Method for quantitation (14). The levels of hsp mRNA levels within an experiment were determined relative to actin mRNA, which was used as the internal control. The range of input of RNA was determined using serial dilutions of the cDNA that yielded a CT value of <30, for both the target cDNA and actin was used in all experiments. […]

[2] = system: cadmium responsive genes, cdr-1 and mtl-1; assay: cadmium stress: cadmium-responsive gene induction; assay type: in vivo, C. elegans
Procedure: as §1
The relative amounts of hsp mRNA were determined using the Comparative CT Method for quantitation (14). The levels of hsp mRNA levels within an experiment were determined relative to actin mRNA, which was used as the internal control. The range of input of RNA was determined using serial dilutions of the cDNA that yielded a CT value of <30, for both the target cDNA and actin was used in all experiments. This typically corresponded to 1 μl of the total cDNA obtained per sample. CT values were obtained in triplicate for each sample (technical triplicate), and three samples were used per experiment. Each experiment was then repeated a minimum of three times. All relative changes of hsp mRNA in the mutant strains were normalized to maximal wild-type values, except where otherwise noted.
Sterile-filtered cadmium chloride was added to a final concentration of 50 μM to standard, autoclaved, NGM medium, and used to make plates. OP50 was seeded onto the plates as described above. […] These animals were then harvested for quantitative RT-PCR. […]

hsp70 (C12C8.1) mRNA [3] = assay: effect of dauer pheromone on the heat shock response; assay type: in vivo, C. elegans
Procedure: C. elegans strains were grown as described above, and all animals were heat shocked at a population density of 10 adults per plate. Sufficient N values were obtained by repeating each heat shock experiment a minimum of 3 times, with 3 samples of 10 animals per plate, per experiment. Heat shock at 30° C. or 34° C., for 15 minutes on agarose plates was achieved by sealing plates with parafilm, further sealing within zip-lock bags, and immersing in a water bath equilibrated to the appropriate temperature. Following heat shock, the parafilm was removed and the animals were allowed to recover at 20° C. for the course of the experiment.
mRNA was prepared using the “ABSOLUTELY RNA® Nanoprep Kit” (Stratagene, Catalog #400753). […] Quantitative PCR was performed using iQ™ SYBR® Green Supermix (Bio-Rad, Catalog #170-8880), in the iCycler system (Bio-Rad) at a 25 μl sample volume, in thin wall 200 μl PCR plates (Cat. No. 223-9441) sealed with the optical quality sealing tape (Cat. No. 223-9444).
as §2

C. elegans = assay: anesthesia: inhibition of movement and recovery; assay type: in vivo; details: within the first 15 minutes following exposure; no death; 10 adults per plate
Procedure: The VA anesthetics used were 2-Bromo-2-chloro-1,1,1-trifluoroethane (Halothane, Fluka, catalog #16730) and Isoflurane (Webster Veterinary NDC#14043-220-05). VA anesthetics were delivered as follows: lids of 1.5 ml eppendorf tubes were cut off, VA was pipetted into the lids, and the lids containing VAs were placed onto plates containing 10 adult wild-type or gcy-8 animals grown as described, and the plates were immediately sealed with parafilm. To inhibit neuronal signaling during the course of heat shock, the VA containing lids were placed on plates 5 minutes prior to the heat shock, and retained during the heat shock treatment of 34° C. for 15 minutes. The lids were then removed 10 minutes post-heat shock during recovery at 20° C., when the plates had equilibrated to 20° C. To inhibit neuronal signaling following the administration of heat shock, animals were heat shocked, and then the lids containing the same volume of VA was placed onto plates 20 minutes post-heat shock, and removed after 30 minutes.
As has been described before, the effect of the VA is extremely variable in any given population of C. elegans (15, 16) and is also influenced by other environmental factors, such as population density, to which the animals are exposed (15). Therefore it was necessary to titrate the amount of VA used for each experiment. […]

[4] = system: hsp70 (C12C8.1) expression; assay: heat shock induction of hsp70 (C12C8.1) in worms anesthetized with volatile anesthetics; assay type: in vivo, C. elegans; details: for hsp70 (C12C8.1) expression in somatic cells: wild-type animals exposed to VAs for the full duration of heat shock (34° C., 15 minutes), 2 hours after recovery; for fraction of animals expressing GFP (hsp70 (C12C8.1) promoter GFP reporter): wild-type animals, VAs during heat shock, 2 hours post-heat shock, control 100%

[Cl][Cd][Cl] [cadmium, cadmium chloride]
hsp70 (C12C8.1) mRNA further induction (hsp70 (C12C8.1) mRNA [1]; after 16 hours of exposure): more than 10 fold
hsp70 (C12C8.1) mRNA (hsp70 (C12C8.1) mRNA [1]; wild-type and gcy-8 mutant animals, 3 hours of exposure): similarly increased
expression of cdr-1 and mtl-1 upon exposure to cadmium ([2]; gcy-8 (thermosensory deficient) adult animals): can induce
expression of cdr-1 and mtl-1 upon exposure to cadmium ([2]; osm-9 and ocr-2 mutant animals): deficient in their ability to upregulate
cdr-1 mRNA ([2]; wild-type and gcy-8 mutant animals, 3 hours of exposure, 50 μM): similarly increased

C[C@H](CCCCC(=O)O)O[C@@H]1O[C@@H](C)[C@H](O)C[C@H]1O [dauer pheromone]
amounts of hsp70 (C12C8.1) mRNA after heat shock (hsp70 (C12C8.1) mRNA [3]; gcy-8 mutant animals exposed to dauer pheromone, compared with heat-shocked wild-type under optimal growth conditions): induced even higher amounts
amounts of hsp70 (C12C8.1) mRNA after heat shock (hsp70 (C12C8.1) mRNA [3]; wild-type animals, high concentrations of dauer pheromone prior to or during heat shock (34° C., 15 minutes)): decreased

FC(F)(F)C(Cl)Br (stereo not shown) [halothane, 2-Bromo-2-chloro-1,1,1-trifluoroethane]
volume of VA that inhibited the movement of 100% of the animals on a plate (C. elegans): 5 to 15 µL
hsp70 (C12C8.1) expression in somatic cells [4]: inhibition; also recorded: marked decrease
fraction of animals expressing GFP (hsp70 (C12C8.1) promoter GFP reporter) [4]: 20%

FC(F)OC(Cl)C(F)(F)F (stereo not shown) [isoflurane, Isoflurane]
volume of VA that inhibited the movement of 100% of the animals on a plate (C. elegans): 10 to 25 µL
hsp70 (C12C8.1) expression in somatic cells [4]: inhibition; also recorded: marked decrease
fraction of animals expressing GFP (hsp70 (C12C8.1) promoter GFP reporter) [4]: 20%
